Where two headings read alike, the source gives them in different places. Where a SMILES comes first, the peptide text is derived from it. [ ]: non-standard residue; d: D form. Aoe = N[C@@H](CCCCCC(=O)[C@@H]1CO1)C(=O)O
Columns and labels:
[1] = system: P. falciparum 3D7 parasites; assay: P. falciparum growth inhibition assay, 1-cycle (72 h treatment), SYBR DNA staining (library screen at 2 μg/mL and dose-response); format: cell-based, Plasmodium falciparum; settings: for activity at 2 µg/mL: Plasmodium falciparum, 3D7
[2] = system: P. falciparum 3D7 parasites; assay: P. falciparum growth inhibition assay, 2-cycle (120 h treatment), delayed-death screen and dose-response; format: cell-based, Plasmodium falciparum; settings: for activity at 2 µg/mL: Plasmodium falciparum, 3D7
[3] = system: T. gondii RH strain (RH-Tub-eYFP) tachyzoites; assay: microbe, parasite or virus in culture; format: cell-based, Toxoplasma gondii; settings: 72 h; for percent parasite growth at 2 µg/mL: Toxoplasma gondii
[4] = library screen at 2 μg/mL, 72 h, % growth, replicate 1
[5] = library screen at 2 μg/mL, 72 h, % growth, replicate 2
[6] = library screen at 2 μg/mL, 120 h, % growth, replicate 1
[7] = library screen at 2 μg/mL, 120 h, % growth, replicate 2
[8] = library screen at 2 μg/mL, % growth, replicate 1
[9] = library screen at 2 μg/mL, % growth, replicate 2

COc1cc([C@H]2[C@@]3(O)[C@H](O)[C@H]4C[C@]2(O)[C@](O)(C(=O)O4)[C@H]3C(=O)c2ccccc2)oc(=O)c1 [Enterocin]
Pf_72h_%Growth_Rep1 [1, 4]: 81.25%
Pf_72h_%Growth_Rep2 [1, 5]: 72.68%
Pf_120h_%Growth_Rep1 [2, 6]: 80.40%
Pf_120h_%Growth_Rep2 [2, 7]: 114.14%
Tg_72h_%Growth_Rep1 [3, 8]: 101.62%
Tg_72h_%Growth_Rep2 [3, 9]: 91.26%

CC[C@@H](O)[C@@](C)(O)[C@@H]1OC(=O)[C@H](C)[C@@H](O[C@H]2C[C@@](C)(OC)[C@@H](O)[C@H](C)O2)[C@H](C)[C@@H](O[C@@H]2O[C@H](C)C[C@H](N(C)C)[C@H]2O)[C@@]2(C)CC(C)=C(O2)[C@@H]1C [Pseudoerythromycin A enol ether]
Pf_72h_%Growth_Rep1 ([1]; P. falciparum, 72 h, parasite screen 2 μg/mL, % growth, replicate 1): 72.76%
Pf_72h_%Growth_Rep2 ([1]; P. falciparum, 72 h, parasite screen 2 μg/mL, % growth, replicate 2): 82.73%
Pf_120h_%Growth_Rep1 ([2]; P. falciparum, 120 h, parasite screen 2 μg/mL, % growth, replicate 1): 72.95%
Pf_120h_%Growth_Rep2 ([2]; P. falciparum, 120 h, parasite screen 2 μg/mL, % growth, replicate 2): 110.79%
Tg_72h_%Growth_Rep1 ([3]; T. gondii, parasite screen 2 μg/mL, % growth, replicate 1): 127.77%
Tg_72h_%Growth_Rep2 ([3]; T. gondii, parasite screen 2 μg/mL, % growth, replicate 2): 87.62%

CCN(CC)CCS(=O)(=O)[C@@H]1CCN2C(=O)c3coc(n3)CC(=O)C[C@H](O)/C=C(C)/C=C/CNC(=O)/C=C/[C@@H](C)[C@@H](C(C)C)OC(=O)[C@@H]12.CS(=O)(=O)O [Dalfopristin mesylate, reference compound]
1) Growth (%) at 72 h ([1]; P. falciparum, 2 μg/mL, 72 h): 45.58%
Pf_72h_%Growth_Rep1 ([1]; P. falciparum, 72 h, screen at 2 μg/mL, replicate 1): 55.22%
Pf_72h_%Growth_Rep2 ([1]; P. falciparum, 72 h, screen at 2 μg/mL, replicate 2): 35.94%
2) Growth (%) at 120 h ([2]; P. falciparum, 2 μg/mL, 120 h): 5.60%
Pf_120h_%Growth_Rep1 ([2]; P. falciparum, 120 h, screen at 2 μg/mL, replicate 1): 1.37%
Pf_120h_%Growth_Rep2 ([2]; P. falciparum, 120 h, screen at 2 μg/mL, replicate 2): 9.82%
3) Fold change (72 h/120 h) ([2]; P. falciparum, growth at 72 h / growth at 120 h, 2 μg/mL): 8.1
Tg_72h_%Growth_Rep1 ([3]; T. gondii, screen at 2 μg/mL, replicate 1): 40.17%
Tg_72h_%Growth_Rep2 ([3]; T. gondii, screen at 2 μg/mL, replicate 2): 68.18%

COc1cc(-c2ccc(O)cc2)c(OC)c(O)c1-c1ccc(O)cc1 [Terphenyllin]
activity at 2 µg/mL ([1]; P. falciparum, 72 h, screen at 2 μg/mL, replicate 1, read-out: Pf_72h_%Growth_Rep1): 87.2%
activity at 2 µg/mL ([1]; P. falciparum, 72 h, screen at 2 μg/mL, replicate 2, read-out: Pf_72h_%Growth_Rep2): 91.8%
activity at 2 µg/mL ([2]; P. falciparum, 120 h, screen at 2 μg/mL, replicate 1, read-out: Pf_120h_%Growth_Rep1): 179%
activity at 2 µg/mL ([2]; P. falciparum, 120 h, screen at 2 μg/mL, replicate 2, read-out: Pf_120h_%Growth_Rep2): 102%
percent parasite growth at 2 µg/mL ([3]; T. gondii, screen at 2 μg/mL, replicate 1, read-out: Tg_72h_%Growth_Rep1): 84.9%
percent parasite growth at 2 µg/mL ([3]; T. gondii, screen at 2 μg/mL, replicate 2, read-out: Tg_72h_%Growth_Rep2): 103%

COc1ccc2c3c([nH]c2c1)[C@H](C=C(C)C)N1C(=O)[C@@H]2CCCN2C(=O)[C@@H]1C3 [Fumitremorgin C]
Pf_72h_%Growth_Rep1 [1, 4]: 84.21%
Pf_72h_%Growth_Rep2 [1, 5]: 83.65%
Pf_120h_%Growth_Rep1 [2, 6]: 98.00%
Pf_120h_%Growth_Rep2 [2, 7]: 92.77%
Tg_72h_%Growth_Rep1 [3, 8]: 152.38%
Tg_72h_%Growth_Rep2 [3, 9]: 98.57%

CS(=O)(=O)c1ccc([C@@H](O)[C@H](N)CF)cc1 [Florfenicol amine]
Pf_72h_%Growth_Rep1 [1, 4]: 83.39%
Pf_72h_%Growth_Rep2 [1, 5]: 89.53%
Pf_120h_%Growth_Rep1 [2, 6]: 94.89%
Pf_120h_%Growth_Rep2 [2, 7]: 93.06%
Tg_72h_%Growth_Rep1 [3, 8]: 102.85%
Tg_72h_%Growth_Rep2 [3, 9]: 100.85%

C[C@@H]1NC(=O)[C@H](CCCCCC(=O)[C@@H]2CO2)NC(=O)[C@H]2CCCN2C(=O)[C@H](Cc2ccccc2)NC1=O [Alaninechlamydocin, 1-] (cyclo(AF[dP][Aoe]))
Pf_72h_%Growth_Rep1 [1, 4]: 2.42%
Pf_72h_%Growth_Rep2 [1, 5]: 0.98%
Pf_120h_%Growth_Rep1 [2, 6]: 12.83%
Pf_120h_%Growth_Rep2 [2, 7]: -6.34%
Tg_72h_%Growth_Rep1 [3, 8]: 2.60%
Tg_72h_%Growth_Rep2 [3, 9]: 2.26%

O=c1cc([O-])c1=O.[Na+] [BIA-M1269]
Pf_72h_%Growth_Rep1 ([1]; P. falciparum 3D7, 72 h, parasite screen at 2 μg/mL, % growth, replicate 1): 85.51%
Pf_72h_%Growth_Rep2 ([1]; P. falciparum 3D7, 72 h, parasite screen at 2 μg/mL, % growth, replicate 2): 86.48%
Pf_120h_%Growth_Rep1 ([2]; P. falciparum 3D7, 120 h, parasite screen at 2 μg/mL, % growth, replicate 1): 98.81%
Pf_120h_%Growth_Rep2 ([2]; P. falciparum 3D7, 120 h, parasite screen at 2 μg/mL, % growth, replicate 2): 138.01%
Tg_72h_%Growth_Rep1 ([3]; T. gondii, parasite screen at 2 μg/mL, % growth, replicate 1): 105.46%
Tg_72h_%Growth_Rep2 ([3]; T. gondii, parasite screen at 2 μg/mL, % growth, replicate 2): 100.53%

From PMC12396409, “Screening and hit evaluation of a microbial metabolite library against the pathogenic Plasmodium falciparum and Toxoplasma gondii parasites” (International Journal for Parasitology: Drugs and Drug …, 2025)
